From patent EP0093376B2, “1-Sulfo-2-azetidinone derivatives, their production and use” (Takeda Chemical Industries, Ltd., priority 1982, dated 1983)
≈ marks a conversion by molar mass, not a printed value.

Columns and labels:
Assay type in all cases: cell-based
[1] = tested on: Enterobacter cloacae IFO 12937; test: MIC by agar dilution method (Experimental Example); conditions: IFO12937; test organism (1) Enterobacter cloacae IFO 12937; Trypticase soy agar; inoculum about 10^8 CFU/ml; overnight culture at 37°C; complete growth inhibition
Experimental: (§1) The MIC of each test compound was determined by the agar dilution method. Thus, a stock aqueous solution of each test compound is serially diluted and the resultant dilution series are put in petri dishes. Then, 9.0 ml of Trypticase soy agar per dish is added and mixed. Each of the agar plates is smeared with a suspension of the test organism (about 10^8 CFU/ml). After overnight culture at 37°C, the minimum concentration of the test compound that caused a complete growth inhibition of the organism is taken as the MIC (minimal inhibitory concentration) value.
(§2) • (1) Enterobacter cloacae IFO 12937 • (2) Klebsiella pneumoniae TN 1711

[2] = tested on: Klebsiella pneumoniae TN 1711; test: MIC by agar dilution method (Experimental Example); conditions: TN1711; test organism (2) Klebsiella pneumoniae TN 1711; Trypticase soy agar; inoculum about 10^8 CFU/ml; overnight culture at 37°C; complete growth inhibition
Experimental: as §1, §2

[3] = tested on: Pseudomonas aeruginosa GN 3407; test: MIC by agar dilution method (Test Example); conditions: GN3407; test organism (3) Pseudomonas aeruginosa GN 3407; Trypticase soy agar; inoculum about 10^6 CFU/ml; overnight at 37°C
Experimental: (§3) The MIC values for the test compounds were determined by the agar dilution method. Thus, 1.0 ml of each serially diluted aqueous solution of each test compound was poured into a petri dish. Then, 9.0 ml of Trypticase soy agar was added and mixed with the aqueous solution. A suspension of the test organism (about 10^6 CFU/ml) was smeared onto the mixed agar plate and incubated overnight at 37°C.
(§4) • (1) Enterobacter cloacae IFO 12937 • (2) Klebsiella pneumoniae TN 1711 • (3) Pseudomonas aeruginosa GN 3407

[4] = tested on: Enterobacter cloacae IFO 12937; test: MIC by agar dilution method (Test Example); conditions: IFO12937; test organism (1) Enterobacter cloacae IFO 12937; Trypticase soy agar; inoculum about 10^6 CFU/ml; overnight at 37°C
Experimental: as §3, §4

[5] = tested on: Klebsiella pneumoniae TN 1711; test: MIC by agar dilution method (Test Example); conditions: TN1711; test organism (2) Klebsiella pneumoniae TN 1711; Trypticase soy agar; inoculum about 10^6 CFU/ml; overnight at 37°C
Experimental: as §3, §4

| Structure (SMILES) | MIC [1] [µg/mL] | MIC [2] [µg/mL] | MIC [3] [µg/mL] | MIC [4] [µg/mL] | MIC [5] [µg/mL] |
| --- | --- | --- | --- | --- | --- |
| CC(C)(O/N=C(\C(=O)N[C@@H]1C(=O)N(S(=O)(=O)O)[C@@H]1CNC(N)=O)c1csc(N)n1)C(=O)O (relative stereo) [cis-3-[2-(2-Amino-4-thiazolyl)-2-(Z)-(1-carboxy-1-methylethoxyimino)acetamido]-4-ureidomethyl-2-azetidinone-1-sulfonic acid] | 12.5 (≈ 25.3 µM) | 3.13 (≈ 6.34 µM) | – | – | – |
| NC(=O)OC[C@@H]1[C@H](NC(=O)/C(=N\OCC(=O)O)c2csc(N)n2)C(=O)N1S(=O)(=O)O [Example 2'] | – | – | 1.56 (≈ 3.34 µM) | 0.05 (≈ 0.107 µM) | 0.05 (≈ 0.107 µM) |
| CCC[C@H]1[C@H](NC(=O)/C(=N\OC(C)(C)C(=O)O)c2csc(N)n2)C(=O)N1S(=O)(=O)O [Sodium [3S,4S]-3-[(2-(2-aminothiazol-4-yl)-2-(Z)-(1-carboxy-1-methylethoxyimino)acetamido]-4-propyl-2-azetidinone-1-sulfonate] | 12.5 | 0.78 | – | – | – |
| CO/N=C(\C(=O)N[C@@H]1C(=O)N(S(=O)(=O)O)[C@H]1CC(C)=O)c1csc(N)n1 [Sodium [3S, 4S]-trans-3-[2-(2-aminothiazol-4-yl]-2-(Z)-methoxyimino]acetamido]-4-(2-oxopropyl)-2-azetidinone-1-sulfonate] | 6.25 | – | – | – | – |
| CC(C)(O/N=C(\C(=O)N[C@@H]1C(=O)N(S(=O)(=O)O)[C@@H]1COC(N)=O)c1csc(N)n1)C(=O)O [Example 4'] | – | – | 6.25 (≈ 12.6 µM) | 0.39 (≈ 0.789 µM) | 0.1 (≈ 0.202 µM) |
| COC(=O)CC[C@@H]1[C@H](NC(=O)/C(=N\OC(C)(C)C(=O)O)c2csc(N)n2)C(=O)N1S(=O)(=O)O (relative stereo) [cis-3-[2-(2-Amino-4-thiazolyl)-2-(Z)-(1-carboxy-1-methylethoxyamino)acetamido]-4-(2-methoxy-carbonylethyl)-2-azetidinone-1-sulfonic acid] | 6.25 (≈ 12.3 µM) | 3.13 (≈ 6.17 µM) | – | – | – |
| CC(=O)CC1C(NC(=O)C(=NOC(C)(C)C(=O)O)c2csc(N)n2)C(=O)N1S(=O)(=O)O (centres unmarked) [Sodium [3S,4S]-3-[(2-(2-aminothiazol-4-yl)-2-(Z)-(1-carboxy-1-methylethoxyimino]acetamido]-4-(2-oxopropyl)-2-azetidinone-1-sulfonate] | 12.5 | 3.13 | – | – | – |
| CC(C)(O/N=C(\C(=O)N[C@@H]1C(=O)N(S(=O)(=O)O)[C@@H]1CS(C)(=O)=O)c1csc(N)n1)C(=O)O (relative stereo) [cis-3-[2-(2-Amino-4-thiazolyl)-2-(Z)-(1-carboxy-1-methylethoxyimino)acetamido]-4-methylsulfonyl-methyl-2-azetidinone-1-sulfonic acid] | 12.5 (≈ 24.3 µM) | 1.56 (≈ 3.04 µM) | – | – | – |
| C[S+]([O-])C[C@@H]1[C@H](NC(=O)/C(=N\OC(C)(C)C(=O)O)c2csc(N)n2)C(=O)N1S(=O)(=O)O (relative stereo) [cis-3-[2-(2-Amino-4-thiazolyl)-2-(Z)-(1-carboxy-1-methylethoxyimino]acetamido]-4-methylsulfinyl-methyl-2-azetidinone-1-sulfonic acid] | 3.13 (≈ 6.29 µM) | 0.78 (≈ 1.57 µM) | – | – | – |

Further compounds by falling MIC [1], results first:

| MIC [1] [µg/mL] | MIC [2] [µg/mL] | MIC [3] [µg/mL] | MIC [4] [µg/mL] | MIC [5] [µg/mL] | Structure (SMILES) |
| --- | --- | --- | --- | --- | --- |
| 3.13 | 3.13 | – | – | – | CON=C(C(=O)NC1C(=O)N(S(=O)(=O)O)C1CC(C)=O)c1csc(N)n1 (stereo not drawn) [Sodium [3S,4S]-cis-3-[(2-(2-aminothiazol-4-yl)-2-(Z)-methoxyimino]acetamido]-4-(2-oxopropyl)-2-azetidinone-1-sulfonate] |
| 3.13 (≈ 7.16 µM) | 0.1 (≈ 0.229 µM) | – | – | – | COC[C@@H]1[C@H](NC(=O)/C(=N\OCC(=O)O)c2csc(N)n2)C(=O)N1S(=O)(=O)O (relative stereo) [cis-3-[2-(2-Amino-4-thiazolyl)-2-(Z)-carboxy-methoxyiminoacetamido]-4-methoxymethyl-2-azetidinone-1-sulfonic acid] |
| 3.13 | 12.5 | – | – | – | CC(C)(O/N=C(\C(=O)N[C@@H]1C(=O)N(S(=O)(=O)[O-])[C@@H]1C[n+]1ccccc1)c1csc(N)n1)C(=O)O (relative stereo) [Monosodium cis-3-[2-(2-amino-4-thiazolyl)-2-(Z)-(1-carboxylato-1-methylethoxyimino)acetamido]-4-pyridiniomethyl-2-azetidinone-1-sulfonate] |
| 1.56 (≈ 3.35 µM) | 0.2 (≈ 0.43 µM) | – | – | – | COC[C@@H]1[C@H](NC(=O)/C(=N\OC(C)(C)C(=O)O)c2csc(N)n2)C(=O)N1S(=O)(=O)O (relative stereo) [cis-3-[2-(2-Amino-4-thiazolyl)-2-(Z)-(1-carboxy-1-methylethoxyimino)acetamido]-4-methoxymethyl-2-azetidinone-1-sulfonic acid] |
| 1.56 | 0.39 | – | – | – | CO/N=C(\C(=O)N[C@@H]1C(=O)N(S(=O)(=O)O)[C@@H]1C(N)=O)c1csc(N)n1 (relative stereo) [Sodium cis-3-[2-(2-amino-4-thiazolyl)-2-(Z)-methoxyiminoacetamido]-4-carbamoyl-2-azetidinone-1-sulfonate] |
